Measured values from patent US9072729B2, “Method for treating fibrosis and cancer with imidazolium and imidazolinium compounds” (Agency for Science, Technology and Research, priority 2008, dated 2015).

What was measured:
Type in all cases: cell-based, rat
[1] = test system: fibronectin; experiment: Real-time RT-PCR of fibronectin mRNA in HSC T6 cells; details: for suppression of fibronectin mRNA: DPIM 2 mM, TMPHIM 50 μM, DBZIM 100 μM
Procedure: FIG. 6. (a) DBZIM and (b) TDBZIM suppressed the mRNA expression of HSC activation markers (GFAP and SMAA) and fibrotic endpoints (col1a1 and fibronectin) in a dosage-dependent manner. […] The ΔΔCt method was used for relative quantification with vehicle control sample being the calibrator. The data were presented as mean and SEM, N=6, *^aP<0.05, *^bP<0.01, *^cP<0.005, and *^dP<0.0005, when compared to the vehicle control. FIG. 7. DBZIM (100 μM) and TDBZIM (100 μM) suppressed (a) GFAP, (b) SMAA, (c) col1a1 and (d) fibronectin mRNA expression in a time-dependent manner. HSC T6 cells were treated with DBZIM and TDBZIM, and assayed after 8, 24 and 48 h. […] FIG. 14. […] (50 μM), […] (50 μM), […] (10 μM) and DBZBIM (100 μM) were dissolved in DMSO with a final DMSO concentration of 0.2% (v/v). DPIM (2 mM), EGCG (25 μM) and DBZIM (100 μM) were dissolved in H2O. β-actin was used as the normalization gene; its expression was constant under the experimental conditions. Relative quantification was normalized against the respective vehicle control. The data were presented as mean and SEM, N=6, *^aP<0.05, *^cP<0.005, and *^dP<0.0005, when compared to the vehicle control. Total RNA was isolated using NucleoSpin RNAII isolation kit ([…], Germany), and quantified by ND-100 spectrophotometer (Nanodrop Technologies, DE, USA). The details of real-time RT-PCR were reported elsewhere (Zhang et al. 2006). Briefly, it was a two-step real-time RT-PCR using Taqman chemistry. Total RNA was first reverse transcribed to cDNA, and real-time PCR was run and detected in ABI 7500 Fast Real-Time PCR System (Applied Biosystems, CA, USA). Primers and probes for rat GFAP, SMAA, collagen Ia1, fibronectin, TGF-β1, TGF-β receptor I (TGFβ RI) and IL-6 were ordered from Taqman's assay-on-demand database. Rat β-actin was used as normalization gene, and its expression level was constant (CT difference was <±0.5) throughout the experimental settings in this study. Relative quantification of target mRNA was calculated using comparative threshold cycle method (ΔΔCT) as described in User Bulletin #2 (ABI Prism 7700 Sequence Detection System). Relative quantification was given by 2^-ΔΔCT to express the up-regulation or down regulation of the target gene under the treatments compared to the control.

[2] = test system: CAT; experiment: Catalase (CAT) activity assay in treated cells; details: for attenuation of CAT activity: 48 h
Procedure: FIG. 4. […] Enzyme activity was normalized against total protein. DBZIM was dissolved in DMSO, and TDBZIM was dissolved in H2O. The data were presented as mean and SEM, N=6, *^aP<0.05, *^bP<0.01, *^cP<0.005, and *^dP<0.0005, when compared to the vehicle control.
Activity levels of three anti-oxidant enzymes, GPx, CAT and SOD, were determined using assay kits from Cayman Chemical. To assay GPx and CAT activities, protein samples were harvested in ice-cold PBS containing 1 mM of EDTA. […] Protein content was determined by BCA assay.
CAT activity was determined based on reaction of the enzyme with methanol in the presence of H2O2. The formaldehyde produced was measured spectrophotometrically at 540 nm using Purpald as the chromogen. CAT activity was expressed as nmol/min/mg protein.

[3] = test system: HSC-T6 cells; experiment: Cellular ROS determination (DCF labeling); details: 48 h
Procedure: FIG. 2. (a) DBZIM and (b) TDBZIM attenuated cellular ROS level. HSC T6 cells were incubated with DBZIM (10, 50, 100 and 300 μM), TDBZIM (10, 50 and 100 μM), NAC (1 mM) and EGCG (25 μM) for 48 h before assaying for cellular ROS levels. The data were presented as relative values after normalizing against a vehicle control. The data were presented as mean and SEM, N=6, *^bP<0.01, *^cP<0.005, and *^dP<0.0005 when compared to the vehicle, control.
The ROS level of treated HSC-T6 cells was determined using the dichlorofluorescein (DCF) labeling method (Molecular Probes Inc., OR, USA). Cultured cells were harvested by trypsinization, and resuspended in phenol red-free DMEM (Invitrogen). Cells were then incubated with 10 μg/ml of 2′,7′-dichloro-fluorescein diacetate (DCFH-DA) in DMEM for 15 min before resuspension in DMEM for assaying. Cell solution was dispensed into a black-wall 96-well pate in triplicate for fluorescence readout at Ex=485 nm and Em=530 nm with a Tecan Safire II plate reader. The fluorescence unit was normalized against viable cell numbers, which were determined using 3-(4,5-dimethylthiazol-2-yl)-2,5-diphenyl tetrazolium bromide (MTT assay, Promega, Wis., USA). Cellular ROS level was expressed relative to the control sample.

Row | Compound | suppression of fibronectin mRNA ([1]; 48 h) | attenuation of CAT activity ([2]; 10 μM) | attenuation of CAT activity ([2]; 50 μM) | attenuation of CAT activity ([2]; 100 μM) | decrease of fibronectin mRNA ([1]; 1 μM, 48 h) | decrease of fibronectin mRNA ([1]; 10 μM, 48 h) | decrease of fibronectin mRNA ([1]; 100 μM, 8 h) | decrease of fibronectin mRNA ([1]; 100 μM, 24 h) | decrease of fibronectin mRNA ([1]; 100 μM, 48 h) | suppression of cellular ROS level ([3]; 10 μM) | suppression of cellular ROS level ([3]; 100 μM) | suppression of CAT activity (references) ([2]; EGCG, NAC (FIG. 4c)) | attenuation of cellular ROS level (references) ([3]; EGCG 25 μM, NAC 1 mM) | attenuation of CAT activity ([2]; 300 μM, without statistical significance) | decrease of fibronectin mRNA ([1]; 300 μM, 48 h) | suppression of cellular ROS level ([3]; 50 μM) | suppression of cellular ROS level ([3]; 300 μM)
1 | CC(C)n1cc[n+](C(C)C)c1.F[B-](F)(F)F [DPIM, 1,3-diisopropylimidazolium tetrafluoroborate] | 48% |  |  |  |  |  |  |  |  |  |  |  |  |  |  |  | 
2 | 1,3,5-tris(4-methyl-imidazolium)-linked cyclophane.3Br [TDBZIM] |  | 25% | 31% | 20% | 32% | 28% | 25% | 29% | 43% | 19% | 36% |  |  |  |  |  | 
3 | (−)-Epigallocatechin gallate [EGCG, reference compound] |  |  |  |  |  |  |  |  |  |  |  | 13% | 14% |  |  |  | 
4 | [Br-].c1ccc(Cn2cc[n+](Cc3ccccc3)c2)cc1 [DBZIM, 1,3-bisbenzylimidazolium bromide] | 26% | 19% | 16% | 12% | 19% |  | 15% | 17% | 25% |  |  |  |  | 8% | 40% | 25% | 34%
